{"source": "patent US11191717B2", "about": "“Topical therapy for the treatment of skin malignancies using nanoparticles of taxanes” (DFB SORIA, LLC, priority 2017, dated 2021)", "key": {"[1]": {"assay": "Particle size analysis of paclitaxel nanoparticles lots (ACCUSIZER 780)", "format": "physicochemical", "conditions": "nanoparticle API in 0.1% w/w SDS solution", "protocol": "Instrument parameters: Max. Concentration: 9000 particles/mL, No. containers: 1, Sensor Range: Summation, Lower Detection Limit: 0.5 μm, Flow Rate: 30 mL/min, No. Analysis pulls: 4, Time between pulls: 1 sec, Pull volume: 10 mL, Tare Volume: 1 mL, Prime volume: 1 mL, Include First Pull: Not Selected.\nVortexed for 5-10 minutes and sonicated in a water batch for 1 minute.\nMethod: Filled a plastic bottle with filtered (0.22 μm) 0.1% w/w SDS solution and analyzed the Background."}, "[2]": {"assay": "Observations of paclitaxel nanoparticle crystals in various substances and solutions of substances (light microscopy)", "format": "physicochemical"}, "[3]": {"test_system": "intact human cadaver skin", "assay": "In vitro skin penetration diffusion study (Franz diffusion cell)", "format": "in vitro ADME", "conditions": "results in Table 14 (formulas F1 through F13)", "protocol": "The skin was centered and the edges flattened out. […] Additional receptor fluid was added where necessary.\nCells were left uncapped during the experiment."}, "[4]": {"conditions": "methanol/water 15/85 (v/v), 37° C., pH 7, 75 rpm, cited from earlier work"}}, "note": "Like-named read-outs stand apart in the source and are kept apart here."}
{"smiles": "CC(=O)O[C@H]1C(=O)[C@@]2(C)[C@H]([C@H](OC(=O)c3ccccc3)[C@]3(O)C[C@H](OC(=O)[C@H](O)[C@@H](NC(=O)c4ccccc4)c4ccccc4)C(C)=C1C3(C)C)[C@]1(OC(C)=O)CO[C@@H]1C[C@@H]2O", "note": "[Paclitaxel nanoparticles lot used in formulas listed in Tabl] [listing 1 of 2 here]", "values": [{"measurement": "Particle size, Mean (number-weighted differential distribution)", "setting": "[1]", "result": 0.861, "unit": "μm"}, {"measurement": "Particle size, Median (number-weighted differential distribution)", "setting": "[1]", "result": 0.710, "unit": "μm"}, {"measurement": "Particle size, Mode (number-weighted differential distribution)", "setting": "[1]", "result": 0.572, "unit": "μm"}]}
{"smiles": "CC(=O)O[C@H]1C(=O)[C@@]2(C)[C@H]([C@H](OC(=O)c3ccccc3)[C@]3(O)C[C@H](OC(=O)[C@H](O)[C@@H](NC(=O)c4ccccc4)c4ccccc4)C(C)=C1C3(C)C)[C@]1(OC(C)=O)CO[C@@H]1C[C@@H]2O", "note": "[Paclitaxel nanoparticles lot used in formulas listed in Tabl] [listing 2 of 2 here]", "values": [{"measurement": "Particle size, Mean (number-weighted differential distribution)", "setting": "[1]", "result": 0.83, "unit": "μm"}]}
{"smiles": "CC(=O)O[C@H]1C(=O)[C@@]2(C)[C@H]([C@H](OC(=O)c3ccccc3)[C@]3(O)C[C@H](OC(=O)[C@H](O)[C@@H](NC(=O)c4ccccc4)c4ccccc4)C(C)=C1C3(C)C)[C@]1(OC(C)=O)CO[C@@H]1C[C@@H]2O", "note": "[Paclitaxel nanoparticles, paclitaxel]", "values": [{"measurement": "Visual observation by light microscopy- Needle shaped crystals observed?", "setting": "[2]; in Aluminum sulfate 0.1-0.2% in water, @ 7 days, RT", "result": "Yes, >5 μm, @"}, {"measurement": "Visual observation by light microscopy- Needle shaped crystals observed?", "setting": "[2]; in Ammonium lauryl sulfate 2% in water, @ 3 days, RT", "result": "Yes, >5 μm @"}, {"measurement": "Visual observation by light microscopy- Needle shaped crystals observed?", "setting": "[2]; in Benzalkonium chloride (50%) 2% in water, @ 7 days & 21 days, RT", "result": "No, <5 μm @"}, {"measurement": "Visual observation by light microscopy- Needle shaped crystals observed?", "setting": "[2]; in CARBOPOL ULTREZ 10 (with Ammonium hydroxide as neutralizer) 0.5% in water, @ 8 days & 21 days, RT", "result": "No, <5 μm, @ 8"}, {"measurement": "Visual observation by light microscopy- Needle shaped crystals observed?", "setting": "[2]; in Castor Oil 100%, @ 24 hrs & 9 days, RT", "result": "No, <5 μm @ 24"}, {"measurement": "Visual observation by light microscopy- Needle shaped crystals observed?", "setting": "[2]; in Dimethicone, 1000 cSt 100%, @ 24 hrs & 6 days, RT", "result": "No, <5 μm @ 24"}, {"measurement": "Visual observation by light microscopy- Needle shaped crystals observed?", "setting": "[2]; in FOMBLIN HC04 100%, @ 4, 7 & 13 days, RT", "result": "No, <5 μm @ 4,"}, {"measurement": "Visual observation by light microscopy- Needle shaped crystals observed?", "setting": "[2]; in Hydroxyethyl cellulose 1% in water, @ 7 days, RT", "result": "Yes, >5 μm, @"}, {"measurement": "Visual observation by light microscopy- Needle shaped crystals observed?", "setting": "[2]; in Hydroxypropyl methylcellulose 1% in water, @ 3 days, RT", "result": "Yes, >5 μm @"}, {"measurement": "Visual observation by light microscopy- Needle shaped crystals observed?", "setting": "[2]; in Lecithin 1% in water, @ 24 hrs, RT", "result": "Yes, >10 μm, @"}, {"measurement": "Visual observation by light microscopy- Needle shaped crystals observed?", "setting": "[2]; in Light Mineral Oil NF 100%, @ 3 days, RT & 40 C.", "result": "No, <5 μm @ 3"}, {"measurement": "Visual observation by light microscopy- Needle shaped crystals observed?", "setting": "[2]; in Magnesium nitrate 5% in water, @ 3 days, RT", "result": "Yes, >5 μm @"}, {"measurement": "Visual observation by light microscopy- Needle shaped crystals observed?", "setting": "[2]; in Mannitol 5% in water, @ 7 days, RT", "result": "Yes, >5 μm, @"}, {"measurement": "Visual observation by light microscopy- Needle shaped crystals observed?", "setting": "[2]; in Mineral Oil USP (heavy) 100%, @ 3 days, RT & 40 C.", "result": "No, <5 μm @ 3"}, {"measurement": "Visual observation by light microscopy- Needle shaped crystals observed?", "setting": "[2]; in PEG 400 10% in water, @ 22 days, RT & 60 C.", "result": "Yes, >5 μm @ 22"}, {"measurement": "Visual observation by light microscopy- Needle shaped crystals observed?", "setting": "[2]; in Poloxamer 188 2% in water, @ 7 days, RT", "result": "Yes, >5 μm @ 7"}, {"measurement": "Visual observation by light microscopy- Needle shaped crystals observed?", "setting": "[2]; in Poloxamer 407 2% in water, @ 5 & 7 days, RT", "result": "No, <5 μm @"}, {"measurement": "Visual observation by light microscopy- Needle shaped crystals observed?", "setting": "[2]; in Polyoxyl 40 Hydrogenated Castor Oil (KOLLIPHOR RH40) 1% in water, @ 6 days, RT", "result": "Yes, <5 μm @ 6"}, {"measurement": "Visual observation by light microscopy- Needle shaped crystals observed?", "setting": "[2]; in Polysorbate 80 0.5% in Saline, @ 7 days, RT & 60 C.", "result": "Yes, >5 μm @"}, {"measurement": "Visual observation by light microscopy- Needle shaped crystals observed?", "setting": "[2]; in Polysorbate 80 0.5% in water, @ 22 days, RT & 60 C.", "result": "Yes, <5 μm @ 22"}, {"measurement": "Visual observation by light microscopy- Needle shaped crystals observed?", "setting": "[2]; in Povidone 1% in water, @ 7 days & 21 days, RT", "result": "Yes, <5 μm @ 7"}, {"measurement": "Visual observation by light microscopy- Needle shaped crystals observed?", "setting": "[2]; in Proline 3% in water, @ 7 days, RT", "result": "Yes, >5 μm, @"}, {"measurement": "Visual observation by light microscopy- Needle shaped crystals observed?", "setting": "[2]; in Purified Water 100%, @ 5 days, RT & 60 C.", "result": "Yes, >5 μm, @ 5"}, {"measurement": "Visual observation by light microscopy- Needle shaped crystals observed?", "setting": "[2]; in ST-Cyclomethicone 5 NF 100%, @ 24 hrs & 13 days, RT", "result": "No, <5 μm @ 24"}, {"measurement": "Visual observation by light microscopy- Needle shaped crystals observed?", "setting": "[2]; in Saline 0.9% NaCl in water, @ 7 days, RT & 60 C.", "result": "Yes, >10 μm, @"}, {"measurement": "Visual observation by light microscopy- Needle shaped crystals observed?", "setting": "[2]; in Sodium lauryl sulfate 2% in water, @ 7 days, RT", "result": "Yes, >5 μm, @"}, {"measurement": "Visual observation by light microscopy- Needle shaped crystals observed?", "setting": "[2]; in Sodium phosphate monobasic 0.75% in water, @ 7 days, RT", "result": "Yes, >5 μm, @"}, {"measurement": "Visual observation by light microscopy- Needle shaped crystals observed?", "setting": "[2]; in Sorbitol 5% in water, @ 7 days, RT", "result": "Yes, >5 μm, @"}, {"measurement": "Visual observation by light microscopy- Needle shaped crystals observed?", "setting": "[2]; in Vitamin E TPGS 0.5% in water, @ 6 days, RT", "result": "Yes, <5 μm @ 6"}, {"measurement": "Visual observation by light microscopy- Needle shaped crystals observed?", "setting": "[2]; in Zinc acetate […] in water, @ 7 days, RT", "result": "Yes, >5 μm, @"}]}
{"smiles": "CC(=O)O[C@H]1C(=O)[C@@]2(C)[C@H]([C@H](OC(=O)c3ccccc3)[C@]3(O)C[C@H](OC(=O)[C@H](O)[C@@H](NC(=O)c4ccccc4)c4ccccc4)C(C)=C1C3(C)C)[C@]1(OC(C)=O)CO[C@@H]1C[C@@H]2O", "note": "[Paclitaxel, paclitaxel]", "values": [{"measurement": "transdermal flux of the paclitaxel through the skin (epidermis and dermis)", "setting": "[3]", "result": "less than 0.01 μg/cm^2"}]}
{"smiles": "CC(=O)O[C@@]12CO[C@@H]1C[C@H](O)[C@@]1(C)C(=O)[C@H](O)C3=C(C)[C@@H](OC(=O)[C@H](O)[C@@H](NC(=O)OC(C)(C)C)c4ccccc4)C[C@@](O)([C@@H](OC(=O)c4ccccc4)[C@H]21)C3(C)C", "note": "[docetaxel nanoparticles, docetaxel]", "values": [{"measurement": "dissolution rate, dissolved in 30 minutes", "setting": "[4]; made by milling", "result": 9, "unit": "%"}, {"measurement": "dissolution rate, dissolved in 30 minutes", "setting": "[4]; made by the supercritical carbon dioxide method", "result": 27, "unit": "%"}]}
